# Read-outs that look alike come from different tables or passages of the source.
# Tests used:
# glucocorticoid receptor [1] = target: T1, glucocorticoid receptor (Homo sapiens, UniProt P04150); test: AR (ARE) luciferase reporter assay, LNCaP-GR cells with DEX (GR-driven); type: cell-based
# T1 sequence (P04150 1-777): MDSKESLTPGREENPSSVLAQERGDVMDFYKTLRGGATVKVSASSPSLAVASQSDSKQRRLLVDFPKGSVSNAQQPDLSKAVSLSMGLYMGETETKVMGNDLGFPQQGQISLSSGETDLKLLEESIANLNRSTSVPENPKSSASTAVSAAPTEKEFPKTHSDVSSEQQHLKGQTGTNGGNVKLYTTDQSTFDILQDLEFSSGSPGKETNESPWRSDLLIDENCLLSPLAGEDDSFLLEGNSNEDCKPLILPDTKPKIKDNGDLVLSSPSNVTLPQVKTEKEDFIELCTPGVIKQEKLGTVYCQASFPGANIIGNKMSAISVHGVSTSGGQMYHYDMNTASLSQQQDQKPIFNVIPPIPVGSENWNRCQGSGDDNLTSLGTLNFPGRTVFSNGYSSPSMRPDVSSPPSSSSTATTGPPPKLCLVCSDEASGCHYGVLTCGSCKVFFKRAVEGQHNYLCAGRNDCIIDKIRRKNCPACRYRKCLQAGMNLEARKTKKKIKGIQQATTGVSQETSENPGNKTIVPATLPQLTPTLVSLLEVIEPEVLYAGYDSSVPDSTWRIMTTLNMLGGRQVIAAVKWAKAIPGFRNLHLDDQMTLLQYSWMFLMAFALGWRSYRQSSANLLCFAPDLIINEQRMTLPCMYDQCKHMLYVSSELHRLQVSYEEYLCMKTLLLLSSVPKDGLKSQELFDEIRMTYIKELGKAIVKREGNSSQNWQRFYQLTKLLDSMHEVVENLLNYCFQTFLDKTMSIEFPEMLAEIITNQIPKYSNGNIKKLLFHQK
# Protocol: (§1) The 22RV1, LNCaP and PC3 cell lines were stably transfected with a PGL4.2 luciferase reporter (Promega, Madison, USA). This reporter contains a sequence (3xgtaattgcagaacagcaagtgctagctctc) representing the wild type of Androgen Response Element (ARE) derived from the Prostate-Specific Antigen (PSA) promoter. […] This transfection was accomplished using Lipofectamine 3000 (Thermo Fisher Scientific, Waltham, MA). Stable clones were selected and maintained with puromycin (0.5 μg/mL). […] The pcDNA5 plasmid (Thermo Fisher Scientific, Waltham, MA), carrying the full open reading frame of GR, was transfected into LNCaP cells, and hygromycin (50 μg/mL) was employed to select and maintain stable clones.
# (§2) 10^4 reporter cells per well of 96-well plate were seeded in RPMI1640 media supplemented with 5% dialysis activated carbon treated FBS, 50 μg/mL Kanamycin in a 37°C, 5% CO2 incubator for 48 h. Cells were treated with herbal extracts at 30, 100, 300, and 600 μg/mL for 24 h in a 37°C-CO2 incubator. […] Dexamethasone (50 nM) was used to stimulate glucocorticoid receptor activity. Cells were lysed using luciferase lysis buffer after which luciferase buffer with luciferin was added to generate luminescence. Luminescence was recorded using a luminescence microplate reader. The IC50 is the concentration of treatment agent required to reduce the measured luminescence to half of its maximal value.
# (§3) GAPDH was used as protein loading control for normalization. […] Details of experimental procedures are given in Materials and methods.
# glucocorticoid receptor [2] = target: T1, glucocorticoid receptor; test: AR (ARE) luciferase reporter assay, PC3 cells (no ligand or DEX, GR-driven); type: cell-based; set-up: PC3 cells that only express GR and respond solely to DEX; endogenous in cells; host or cells: PC3; settings: 24 h
# Protocol: as §1, §2, §3
# glucocorticoid receptor [3] = target: T1, glucocorticoid receptor; test: AR (ARE) luciferase reporter assay, 22RV1 cells with DEX (GR-driven); type: cell-based; set-up: AR luciferase reporter assay using 22RV1 cells that express GR; endogenous in cells; host or cells: 22RV1
# Protocol: as §1, §2, §3
# [4] = ref Rice et al., 2019; cited from earlier work
# From the text: Prostate cancer is the second leading cause of cancer death among men in the United States. According to the National Cancer Institute over 3 million men in the United States are living with prostate cancer, with 288,300 additional cases and 34,700 deaths expected in 2023. Androgen receptor (AR) signaling plays a key role in development of Benign prostatic hyperplasia (BPH) and prostate cancer ([Shiota et al., 2011]; [Gioeli and Paschal, 2012]; [Mills, 2014]; [Wong et al., 2014]; [Tan et al., 2015]). Therefore, androgen or Androgen R targeted therapy has become a major focus for the prevention ...
# AR = tested on: AR; set-up: method as in Rice et al., 2019; settings: ref Rice et al., 2019; cited from earlier work
# From the text: Prostate cancer is the second leading cause of cancer death among men in the United States. […] Therefore, androgen or Androgen R targeted therapy has become a major focus for the prevention ...
# [5] = tested on: castration-resistant prostate cancer (CRPC); settings: cited from earlier work
# androgen receptor [6] = target: androgen receptor (Homo sapiens, UniProt P10275); type: cell-based
# Sequence of androgen receptor (Homo sapiens, UniProt P10275) (P10275 whole entry): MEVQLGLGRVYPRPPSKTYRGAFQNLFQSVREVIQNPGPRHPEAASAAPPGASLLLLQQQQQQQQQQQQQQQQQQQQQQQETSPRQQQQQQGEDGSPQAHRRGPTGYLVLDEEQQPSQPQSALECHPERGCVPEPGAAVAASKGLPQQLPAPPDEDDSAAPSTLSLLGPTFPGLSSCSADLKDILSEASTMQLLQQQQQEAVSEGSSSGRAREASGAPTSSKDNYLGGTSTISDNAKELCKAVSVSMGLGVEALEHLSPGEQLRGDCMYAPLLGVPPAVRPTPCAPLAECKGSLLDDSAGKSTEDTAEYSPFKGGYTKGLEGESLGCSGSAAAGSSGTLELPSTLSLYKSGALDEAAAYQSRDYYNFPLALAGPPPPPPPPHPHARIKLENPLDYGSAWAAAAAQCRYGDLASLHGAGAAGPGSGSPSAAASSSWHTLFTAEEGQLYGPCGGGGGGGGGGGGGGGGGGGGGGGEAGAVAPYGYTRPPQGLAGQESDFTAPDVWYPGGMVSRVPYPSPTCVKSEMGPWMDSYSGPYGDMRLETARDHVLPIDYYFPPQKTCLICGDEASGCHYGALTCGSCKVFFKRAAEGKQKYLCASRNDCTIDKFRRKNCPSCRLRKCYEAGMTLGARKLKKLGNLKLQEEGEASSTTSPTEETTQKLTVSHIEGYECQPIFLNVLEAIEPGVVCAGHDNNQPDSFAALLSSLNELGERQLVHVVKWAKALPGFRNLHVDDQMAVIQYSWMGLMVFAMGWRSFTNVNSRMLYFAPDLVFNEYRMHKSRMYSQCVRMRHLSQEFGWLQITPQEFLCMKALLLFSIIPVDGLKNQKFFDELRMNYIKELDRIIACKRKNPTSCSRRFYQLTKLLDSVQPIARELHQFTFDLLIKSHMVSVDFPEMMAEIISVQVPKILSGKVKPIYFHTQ
# Protocol: as §1
# as §2, with “value. […]” for “value.”
# androgen receptor [7] = target: T2, androgen receptor (Homo sapiens, UniProt P10275, T878A); test: cell-based
# T2 construct: LNCaP cells that only express AR and respond solely to DHT; endogenous in cells; host or cells: LNCaP; LNCaP-GR
# T2 sequence (P10275 1-920 T878A): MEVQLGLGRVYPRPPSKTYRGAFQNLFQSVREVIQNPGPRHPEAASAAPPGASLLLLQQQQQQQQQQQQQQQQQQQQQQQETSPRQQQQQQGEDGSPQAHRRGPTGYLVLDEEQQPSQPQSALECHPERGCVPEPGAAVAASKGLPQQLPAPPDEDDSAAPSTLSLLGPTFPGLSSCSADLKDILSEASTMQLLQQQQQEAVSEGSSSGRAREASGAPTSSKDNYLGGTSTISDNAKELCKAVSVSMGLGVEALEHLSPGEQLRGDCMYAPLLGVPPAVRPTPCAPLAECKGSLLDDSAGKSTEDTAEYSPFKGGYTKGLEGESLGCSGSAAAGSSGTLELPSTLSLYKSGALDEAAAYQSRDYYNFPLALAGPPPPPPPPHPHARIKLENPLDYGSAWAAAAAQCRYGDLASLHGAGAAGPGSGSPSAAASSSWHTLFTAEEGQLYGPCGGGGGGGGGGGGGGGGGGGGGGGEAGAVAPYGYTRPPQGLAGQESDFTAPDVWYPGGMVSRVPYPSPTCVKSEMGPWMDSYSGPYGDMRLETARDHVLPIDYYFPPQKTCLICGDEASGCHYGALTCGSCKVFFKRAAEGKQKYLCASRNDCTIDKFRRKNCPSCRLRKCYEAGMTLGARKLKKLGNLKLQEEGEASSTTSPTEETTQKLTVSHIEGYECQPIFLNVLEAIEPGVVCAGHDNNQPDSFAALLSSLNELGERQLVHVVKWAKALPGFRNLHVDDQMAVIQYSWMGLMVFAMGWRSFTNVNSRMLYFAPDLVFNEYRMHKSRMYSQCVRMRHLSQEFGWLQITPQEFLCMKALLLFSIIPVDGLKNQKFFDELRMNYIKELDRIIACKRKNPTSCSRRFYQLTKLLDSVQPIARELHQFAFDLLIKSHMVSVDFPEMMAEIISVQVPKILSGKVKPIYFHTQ
# Protocol: as §1, §2, §3
# androgen receptor [8] = target: T2, androgen receptor; test: AR (ARE) luciferase reporter assay, LNCaP cells (no ligand or DHT); type: cell-based
# Protocol: as §1, §2, §3
# 22RV1 tumor = test: 22RV1 xenograft tumor growth in NCR-nude mice; type: in vivo, human; settings: enzalutamide alone, 5 mg/kg po QD, 7 days
# From the text: Differences were considered statistically significant at p < 0.05.
# [9] = tested on: de novo protein synthesis; set-up: method as in Zalacain et al., 1982; Chan et al., 2004; Keysar et al., 2020; settings: ref Zalacain et al., 1982; Chan et al., 2004; Keysar et al., 2020; cited from earlier work
# [10] = IC50 for ARE-luciferase reporter, ligand: -
# [11] = IC50 for ARE-luciferase reporter, ligand: DEX (50 nM)
# [12] = of patients, ref Cattrini et al., 2022
# [13] = IC50 for ARE-luciferase reporter
# [14] = read-out: IC50 for ARE-luciferase reporter
compound,measurement,setting,value
COc1ccc(C[C@H]2C(=O)N[C@@H](C)C(=O)N(C)[C@H]3Cc4ccc(cc4)Oc4cc(ccc4OC)C[C@@H](C(=O)N[C@H](C)C(=O)N[C@@H](C)C(=O)N2C)N(C)C3=O)cc1 [RA-VII],IC50,glucocorticoid receptor [1],5.6 ± 2.3 nM
same,IC50,glucocorticoid receptor [2]; [10],32 ± 9 nM
same,IC50,glucocorticoid receptor [2]; [11],3.6 ± 0.6 nM
same,IC50,glucocorticoid receptor [3],13.5 ± 5 nM
CNC(=O)c1ccc(N2C(=S)N(c3cnc(C#N)c(C(F)(F)F)c3)C(=O)C23CCC3)cc1F [apalutamide],brain penetrance,[4],reductions in brain penetrance
same,selectivity and potency against AR,AR,higher selectivity and potency against AR
same,grade 3 adverse events or higher,[5]; [12],approximately 25%
same,most common side effects,"[5]; ref Cattrini et al., 2022","fatigue, hypertension, diarrhea, and weight loss"
COc1ccc(C[C@H]2C(=O)N[C@@H](C)C(=O)N(C)[C@H]3Cc4ccc(cc4)Oc4cc(ccc4O)C[C@@H](C(=O)N[C@H](C)C(=O)N[C@@H](CCC(=O)O)C(=O)N2C)N(C)C3=O)cc1 [RA-XI],IC50,glucocorticoid receptor [1],> 250 nM
same,comparative potency (anti-AR and anti-GR activity),androgen receptor [6],significantly reduce the anti-AR and anti-GR activity
same,inhibition of luciferase activity in any assay,androgen receptor [6],did not inhibit luciferase activity in any assay
same,IC50,glucocorticoid receptor [2]; [10],> 250 nM
same,IC50,glucocorticoid receptor [2]; [11],> 250 nM
same,IC50,androgen receptor [7]; [13],> 250 nM
same,IC50,androgen receptor [7]; [14],> 250 nM
same,IC50,glucocorticoid receptor [3],> 250 nM
same,IC50,androgen receptor [8]; [13],> 250 nM
same,IC50,androgen receptor [8]; [14],> 250 nM
CNC(=O)c1ccc(N2C(=S)N(c3ccc(C#N)c(C(F)(F)F)c3)C(=O)C2(C)C)cc1F [Enzalutamide],inhibition of DEX-induced luciferase activity,"glucocorticoid receptor [1]; LNCaP-GR, DEX 50 nM, 24 h",no effect
same,22RV1 tumor growth,22RV1 tumor,not found to substantially decrease the growth of 22RV1 tumors
same,inhibition of DEX-induced luciferase activity,glucocorticoid receptor [2]; DEX 50 nM,no effect
same,inhibition of Dex-induced luciferase activity,"glucocorticoid receptor [3]; 22RV1, DEX 50 nM, 24 h",unable to inhibit GR-mediated luciferase activity
same,grade 3 adverse events or higher,[5]; [12],approximately 25%
same,most common side effects,"[5]; ref Cattrini et al., 2022","fatigue, hypertension, diarrhea, and weight loss"
"COc1ccc(C[C@H]2C(=O)N[C@@H](C)C(=O)N(C)[C@H]3Cc4ccc(cc4)Oc4cc(ccc4O)C[C@@H](C(=O)N[C@H](C)C(=O)N[C@@H](C)C(=O)N2C)N(C)C3=O)cc1 [RA-V, Deoxybouvardin]",IC50,"glucocorticoid receptor [1]; LNCaP-GR, ligand: +DEX (50 nM), 24 h, read-out: IC50 for ARE-luciferase reporter",7.8 ± 2.2 nM
same,IC50,"glucocorticoid receptor [2]; ligand: -, read-out: IC50 for ARE-luciferase reporter",40 ± 19 nM
same,IC50,"glucocorticoid receptor [2]; ligand: DEX (50 nM), read-out: IC50 for ARE-luciferase reporter",5.7 ± 2.3 nM
same,IC50,"androgen receptor [7]; LNCaP-GR, ligand: +DHT (25 nM), 24 h, read-out: IC50 for ARE-luciferase reporter",4.1 ± 1.3 nM
same,IC50,"androgen receptor [7]; LNCaP-GR, ligand: -, 24 h, read-out: IC50 for ARE-luciferase reporter",> 100 nM
same,IC50,"glucocorticoid receptor [3]; 22RV1, ligand: +DEX (50 nM), 24 h, read-out: IC50 for ARE-luciferase reporter",22 ± 5 nM
same,IC50,"androgen receptor [8]; LNCaP, ligand: +DHT (25 nM), 24 h, read-out: IC50 for ARE-luciferase reporter",5.3 ± 1.4 nM
same,IC50,"androgen receptor [8]; LNCaP, ligand: -, 24 h, read-out: IC50 for ARE-luciferase reporter",> 100 nM
Bouvardin,inhibition of de novo protein synthesis,[9],can inhibit de novo protein synthesis
CC(O)c1cc(C(=O)N[C@@H](C)Cn2ccc(-c3ccc(C#N)c(Cl)c3)n2)[nH]n1 (stereo partly shown) [darolutamide],brain penetrance,[4],reductions in brain penetrance
same,selectivity and potency against AR,AR,higher selectivity and potency against AR
same,grade 3 adverse events or higher,"[5]; human, in vivo",approximately 25%
same,most common side effects,"[5]; human, in vivo","fatigue, hypertension, diarrhea, and weight loss"

# Source: publication PMC10582333 (Frontiers in Pharmacology, 2023)
